Test results from US20140128357A1, “METHODS OF PRODUCING AND USING BRASSINOSTEROIDS TO PROMOTE GROWTH, REPAIR AND MAINTENANCE OF SKELETAL MUSCLE AND SKIN” (Rutgers University, priority 2010, published 2014).

Columns and labels:
L6 rat myotubes = assay: Protein synthesis, [3H]-phenylalanine incorporation in myotubes; assay type: cell-based; conditions: for increase in protein synthesis above control levels: 4 h (FIG. 2A); for Protein synthesis (% increase over control): 4 h; for maximum increases in protein synthesis: dose response 0.3-30 μM (FIG. 8A)
Method in brief: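 Differentiated L6 rat myotubes (2% serum, 7–9 days) treated in triplicate in serum-free DMEM with compound (10 μM) or 0.1% ethanol vehicle plus 0.5 μCi/mL [3H]-phenylalanine for 4 h. TCA-precipitated protein counted by scintillation, normalised to total protein; IGF-1 6.5 nM positive control.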

[1] = test system: 3T3 Swiss fibroblast monolayers; assay: Scratch wound closure in vitro; assay type: cell-based, mouse; conditions: for Scratch wound closure at 5 μM, % of control: 12 h (Table 6); for Wound Closure (% over control): 10 μM, 12 h (Table 4)
Protocol: 3T3 fibroblasts were seeded into 24-well dishes at a concentration of 3×10^5 cells/ml and cultured to nearly confluent cell monolayers. On the day of the experiment, a linear wound was generated in the monolayer with a sterile 100 μl plastic pipette tip and any cellular debris was removed by washing cells once with sterile PBS. Fresh DMEM medium containing vehicle (0.1% ethanol), positive control (0.5% FBS), or various concentrations of the fractions, sub-fractions or pure compounds was added to a set of 3 wells per dose and incubated for 12 h at 37° C. with 5% CO2. Cells were then visualized with 20 μl of 10% methylene blue in PBS for 5 min. Three representative images of the scratched areas from each well were photographed at 0 and 12 h to estimate the scratch wound closure. Images were analyzed using ImageJ program (NIH, Bethesda, Md.) and % wound closure was calculated relative to vehicle control and was reported as wound closure % over control (Table 4). 3T3 Swiss fibroblast were seeded into 24-well tissue culture at a concentration of 3×10^5 cells/ml and cultured to nearly confluent cell monolayers. Then, a linear wound was generated in the monolayer with a sterile 100 μl plastic pipette tip. Any cellular debris was removed by washing with PBS. DMEM medium with vehicle (0.1% ethanol), FBS (1%, positive control), or various concentrations of brassinosteroids were added to a set of 3 wells per dose and incubated for 12 h at 37° C. with 5% CO2. Cells were visualized in 10% methylene blue for 5 minutes. Three representative images from each well of the scratched areas under each condition were photographed to estimate the relative migration of cells at 0 and 12 h post-treatment. Data were analyzed using ImageJ software available online from the National Institutes of Health (rsbweb.nih.gov/ij/) by calculating the percentage of scratch closure at each dose point relative to control.

CC[C@@H](C(C)C)[C@H](O)[C@@H](O)[C@@H](C)[C@H]1CC[C@H]2[C@@H]3COC(=O)[C@H]4C[C@H](O)[C@H](O)C[C@]4(C)[C@H]3CC[C@]12C [Compound 1, (22S,23S,24S)-2α,3α,22,23-tetrahydroxy-24 ethyl-β-homo-7-oxo-5α-cholestane-6-one]
increase in protein synthesis above control levels (L6 rat myotubes; 1 μM): 12.4±2.3% | time at which stimulated protein synthesis peaked (L6 rat myotubes; 3 μM, 1-24 h study): 3 h | Protein synthesis (% increase over control) (L6 rat myotubes; 10 μM): 37.2 ± 5.9 % | increase in protein synthesis above control levels (L6 rat myotubes; 10 μM): 34.9±3.1% | Protein synthesis (% increase over control) (L6 rat myotubes; 10 μM, listed as HB): 37.2±5.9% | increase in protein synthesis above control levels (L6 rat myotubes; 20 μM): 36.9±2.9% | maximum increases in protein synthesis (L6 rat myotubes): 36.9±2.9% | EC50 (L6 rat myotubes; read-out: 50% effective dose for protein synthesis): 3 µM | Scratch wound closure at 5 μM, % of control [1]: 30 ± 4.2 % | Scratch wound closure at 5 μM, % of control ([1]; listed as HB): 30±4.2% | Wound Closure (% over control) [1]: 30.2 ± 11.2 %

CC[C@@H](C(C)C)[C@H](O)[C@@H](O)[C@@H](C)[C@H]1CC[C@H]2[C@@H]3CC(=O)[C@H]4C[C@H](O)[C@H](O)C[C@]4(C)[C@H]3CC[C@]12C [Compound 2, (22S,23S,24S)-2α,3α, 22,23-tetrahydroxy-24-ethyl-5α-cholestan-6-one]
Protein synthesis (% increase over control) (L6 rat myotubes; 10 μM): 41.0 ± 2.7 % | Protein synthesis (% increase over control) (L6 rat myotubes; 10 μM, listed as (22S,23S)-homocastasterone): 41.0±2.7% | maximum increases in protein synthesis (L6 rat myotubes): 40.7±4.9% | Scratch wound closure at 5 μM, % of control [1]: 32.9 ± 4.1 % | Wound Closure (% over control) [1]: 32.9 ± 14.1 %

CC[C@@H](C(C)C)[C@H](O)[C@@H](O)[C@@H](C)[C@H]1CC[C@H]2[C@@H]3CC(=O)N[C@H]4C[C@H](O)[C@H](O)C[C@]4(C)[C@H]3CC[C@]12C [Compound 5, (22S,23S,24S)-2α,3α-22,23-tetrahydroxy-24-ethyl-B-homo-6-aza-5α-cholestan-7-one]
effect of structural modification on activation of protein synthesis, in words (L6 rat myotubes; 10 μM): complete loss of activation of protein synthesis | Protein synthesis (% increase over control) (L6 rat myotubes; 10 μM): 3.3 ± 12.4% | Scratch wound closure at 5 μM, % of control [1]: 13.0 ± 0.7% | fibroblast migration activity in words ([1]; 0.1-10 μM, 12 h): no effect on fibroblast migration
